This note sets out measurements from ChEMBL document CHEMBL1121983, “Conformational requirements for norepinephrine uptake inhibition by phenethylamines in brain synaptosomes. Effects of alpha-alkyl substitution” (J Med Chem, 1982).

The species named for the experiment is Rattus norvegicus. The experiment is described as follows: Inhibition of [3H]norepinephrine uptake was determined in rat brain synaptosomal preparation. It counts as functional.
The compound `N[C@H]1CCc2ccccc2C1` (racemic) had an IC50 of 850 nM. As to `CC[C@H](N)Cc1ccccc1` (racemic), half-maximal inhibition (IC50) was put at 6500 nM.

On to `N[C@H]1C=Cc2ccccc2C1` (racemic), for which the IC50 was 650 nM. For `CC(N)Cc1ccccc1` (racemic), the IC50 is 490 nM. The IC50 values of the last two compounds are within 1.5-fold of each other.
